In the NIST ThermoML archive (doi:10.1016/j.jct.2014.11.007):
± gives the expanded uncertainty stated by the source.

Columns and labels:
[1] = mn = molality of the nth substance listed, in mol/kg; settings: 100 kPa, Liquid; for speed of sound: Frequency=3 MHz, Sing-around technique in a fixed-path interferometer; for mass density: Vibrating tube method
[2] = 100 kPa, Liquid, Vibrating tube method

NCC(=O)O [2-aminoacetic acid] + O
[1]
Settings | mass density, 293.15 K [kg/m3] | mass density, 298.15 K [kg/m3] | mass density, 303.15 K [kg/m3] | mass density, 308.15 K [kg/m3] | mass density, 313.15 K [kg/m3] | speed of sound, 293.15 K [m/s] | speed of sound, 298.15 K [m/s] | speed of sound, 303.15 K [m/s] | speed of sound, 308.15 K [m/s] | speed of sound, 313.15 K [m/s]
m1 = 0.01 | – | 997.478 ± 0.2 | – | – | – | 1483.7 ± 1.5 | 1497.8 ± 1.5 | 1510.2 ± 1.5 | 1520.8 ± 1.5 | 1529.8 ± 1.5
m1 = 0.03 | 999.313 ± 0.2 | 998.145 ± 0.2 | 996.744 ± 0.2 | 995.118 ± 0.2 | 993.306 ± 0.2 | 1484.5 ± 1.5 | 1498.5 ± 1.5 | 1510.9 ± 1.5 | 1521.5 ± 1.5 | 1530.5 ± 1.5
m1 = 0.05 | 999.93 ± 0.2 | 998.761 ± 0.2 | 997.353 ± 0.2 | – | 993.898 ± 0.2 | 1485.7 ± 1.5 | 1499.6 ± 1.5 | 1511.9 ± 1.5 | 1522.5 ± 1.5 | 1531.5 ± 1.5

O=C(O)[C@@H]1CCCN1 [L-proline] + O
[1]
Settings | mass density, 293.15 K [kg/m3] | mass density, 298.15 K [kg/m3] | mass density, 303.15 K [kg/m3] | mass density, 308.15 K [kg/m3] | mass density, 313.15 K [kg/m3] | speed of sound, 293.15 K [m/s] | speed of sound, 298.15 K [m/s] | speed of sound, 303.15 K [m/s] | speed of sound, 308.15 K [m/s] | speed of sound, 313.15 K [m/s]
m1 = 0.01 | 998.631 ± 0.26 | 997.474 ± 0.26 | 996.082 ± 0.26 | 994.462 ± 0.26 | 992.639 ± 0.26 | 1483.8 ± 1.6 | 1497.8 ± 1.6 | 1510.1 ± 1.6 | 1520.7 ± 1.6 | 1529.8 ± 1.6
m1 = 0.03 | 999.275 ± 0.26 | 998.109 ± 0.26 | 996.709 ± 0.26 | 995.083 ± 0.26 | 993.259 ± 0.26 | 1485.8 ± 1.6 | 1499.8 ± 1.6 | 1511.8 ± 1.6 | 1522.4 ± 1.6 | 1531.4 ± 1.6
m1 = 0.05 | 999.919 ± 0.26 | 998.747 ± 0.26 | 997.338 ± 0.26 | 995.708 ± 0.26 | 993.88 ± 0.26 | 1487.4 ± 1.6 | 1501 ± 1.6 | 1512.9 ± 1.6 | 1523.5 ± 1.6 | 1532.3 ± 1.6

O [water]
[2]
Settings | mass density [kg/m3]
293.15 K | 998.272 ± 0.2
308.15 K | 994.108 ± 0.2
313.15 K | 992.29 ± 0.2
